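Five compound concentrations were applied to cells in 96-well plates for 48 hours; endpoints were derived by simple linear interpolation of the resulting dose-response curve. GI50: concentration for 50% inhibition of growth. TGI marks complete inhibition of growth.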
Legend:
Test in all cases: NCI-60 cell line screen, 48 h
DLD-1 colon = tested on: DLD-1 colon
DMS 114 small cell lung = tested on: DMS 114 small cell lung
HOP-18 NSCLC = tested on: HOP-18 NSCLC
M19-MEL melanoma = tested on: M19-MEL melanoma
SNB-78 CNS = tested on: SNB-78 CNS
LXFL 529 NSCLC = tested on: LXFL 529 NSCLC
MDA-N = tested on: MDA-N
RXF-631 renal = tested on: RXF-631 renal
XF 498 CNS = tested on: XF 498 CNS

| SMILES | GI50 (DLD-1 colon) | TGI (DLD-1 colon) | GI50 (DMS 114 small cell lung) | TGI (DMS 114 small cell lung) | GI50 (HOP-18 NSCLC) | TGI (HOP-18 NSCLC) | GI50 (M19-MEL melanoma) | TGI (M19-MEL melanoma) | GI50 (SNB-78 CNS) | TGI (LXFL 529 NSCLC) | TGI (MDA-N) | TGI (RXF-631 renal) | TGI (SNB-78 CNS) | TGI (XF 498 CNS) | GI50 (LXFL 529 NSCLC) |
| --- | --- | --- | --- | --- | --- | --- | --- | --- | --- | --- | --- | --- | --- | --- | --- |
| CC[O-].CC[O-].O=Nc1ccc2cc([O-])ccc2c1.O=Nc1ccc2cc([O-])ccc2c1.[Ti+4] | 2.45 µM | > 21.9 µM | 1.95 µM | 6.06 µM | 1.49 µM | 2.82 µM | 0.728 µM | 3.25 µM | 2.79 µM | – | – | – | – | – | – |
| CC(=O)Oc1cccc2c1C(=O)C(Br)(Br)CCC2 | – | 36.2 µM | – | 7.79 µM | – | 32.2 µM | – | 24.6 µM | – | 18.7 µM | 12.8 µM | 35.5 µM | 33.8 µM | 24.1 µM | – |
| N#CC1(c2nc3ccccc3o2)C(=O)C(=O)N(c2ccc(Cl)c(Cl)c2)C(=O)C1=O | – | > 100 µM | – | – | – | > 100 µM | – | – | – | > 100 µM | – | – | > 100 µM | > 100 µM | – |
| CCc1oc2ccccc2c1C(=O)c1cc(Br)c(O)c(Br)c1 | – | – | – | – | – | – | – | – | – | – | > 100 µM | – | – | – | – |
| CNS(=O)(=O)NN(C)S(=O)(=O)c1ccc(Br)cc1 | – | – | – | > 100 µM | – | – | – | > 100 µM | – | > 100 µM | – | > 100 µM | – | > 100 µM | – |
| CC(C)(C)C(=O)C(c1ccc(-c2cscn2)cc1)c1ccc(-c2cscn2)cc1 | – | > 100 µM | – | – | – | > 100 µM | – | > 100 µM | – | > 100 µM | – | > 100 µM | 78.5 µM | 80.5 µM | – |
| COc1cc2c(cc1OC)[C@@H](C(O)c1ccccc1)NCC2 (stereo partly specified) | – | > 100 µM | – | > 100 µM | – | – | – | > 100 µM | – | > 100 µM | – | > 100 µM | > 100 µM | > 100 µM | – |
| CCCCC(=O)[O-].N.N.N.N.N.[Co+3].[O-][Cl+3]([O-])([O-])[O-] | > 100 µM | > 100 µM | – | – | – | – | – | – | > 100 µM | > 100 µM | – | – | > 100 µM | – | > 100 µM |
| CN(C)CCNC(=O)c1cc([N+](=O)[O-])ccn1 | – | – | – | – | – | – | – | – | – | – | 30.7 µM | – | – | – | – |
| C=C1C(=O)O[C@@H]2C[C@@H](C)[C@@H]3[C@@H](OC4OC(COC(C)=O)C(O)C(O)C4O)CC(=O)[C@@]3(C)C[C@H]12 (stereo partly specified) | – | – | – | – | – | – | – | – | – | – | 3.51 µM | – | – | – | – |
| CC(=O)OC[C@@H]1[C@H]2CC(=O)O[C@H]2C[C@H]1OC(C)=O | – | > 100 µM | – | > 100 µM | – | > 100 µM | – | > 100 µM | – | > 100 µM | – | – | > 100 µM | – | – |
| O=C(Nc1nccs1)c1cc(C2=CC=CC([N+](=O)[O-])C=C2)nc(=S)[nH]1 (stereo unspecified) | – | – | – | > 100 µM | – | > 100 µM | – | > 100 µM | – | > 100 µM | – | – | > 100 µM | – | – |
| Cc1c(C(=O)CC(=O)C(=O)Nc2cccc(C(F)(F)F)c2)[n+](=O)c2ccccc2n1[O-] | – | – | – | 4.43 µM | – | 25.5 µM | – | 3.69 µM | – | 14.1 µM | – | 11 µM | 25.2 µM | – | – |
| CCN(CC)C(=S)N/N=C(\C)c1ccccc1O | – | > 100 µM | – | > 100 µM | – | 86.5 µM | – | > 100 µM | – | > 100 µM | – | > 100 µM | > 100 µM | – | – |
| CN(C)c1ccc(/C=C2\N=C(c3ccc(N)cc3)OC2=O)cc1 | – | > 100 µM | – | > 100 µM | – | > 100 µM | – | > 100 µM | – | > 100 µM | – | > 100 µM | > 100 µM | > 100 µM | – |
| NC1CCC[C@@H](O)[C@H]1O (stereo partly specified) | – | – | – | – | – | – | – | – | – | – | > 100 µM | – | – | – | – |
| CN(C)CCCn1c2c3ccccc3ccc2c2oc(=O)c3ccccc3c21 | – | 2.99 µM | – | 4.09 µM | – | 40.2 µM | – | 8.86 µM | – | 10 µM | – | – | 39 µM | 9.55 µM | – |

Source: PubChem BioAssay (NCI)
